# In the NIST ThermoML archive (doi:10.1021/je400055v):
# ± gives the expanded uncertainty stated by the source.
# Test: xn = mol fraction of the nth substance listed
# Settings: Liquid, Vibrating tube method
compound,measurement,setting,value
CCCCCCCCCCC [undecane] + CCCCCCC,mass density,"313.12 K, 2001 kPa, x2 = 0.5063",703.7 ± 0.3 kg/m3
same,mass density,"313.12 K, 3000 kPa, x2 = 0.5063",704.6 ± 0.3 kg/m3
same,mass density,"313.12 K, 4000 kPa, x2 = 0.5063",705.6 ± 0.3 kg/m3
same,mass density,"313.12 K, 5000 kPa, x2 = 0.5063",706.5 ± 0.3 kg/m3
same,mass density,"313.12 K, 6000 kPa, x2 = 0.5063",707.4 ± 0.3 kg/m3
same,mass density,"313.12 K, 7000 kPa, x2 = 0.5063",708.2 ± 0.3 kg/m3
same,mass density,"313.12 K, 8001 kPa, x2 = 0.5063",709.1 ± 0.3 kg/m3
same,mass density,"313.12 K, 9000 kPa, x2 = 0.5063",709.9 ± 0.3 kg/m3
same,mass density,"313.12 K, 10000 kPa, x2 = 0.5063",710.8 ± 0.3 kg/m3
same,mass density,"313.12 K, 11000 kPa, x2 = 0.5063",711.6 ± 0.3 kg/m3
same,mass density,"313.12 K, 12000 kPa, x2 = 0.5063",712.4 ± 0.3 kg/m3
same,mass density,"313.12 K, 13000 kPa, x2 = 0.5063",713.2 ± 0.3 kg/m3
same,mass density,"313.12 K, 14000 kPa, x2 = 0.5063",714 ± 0.3 kg/m3
same,mass density,"313.12 K, 15000 kPa, x2 = 0.5063",714.8 ± 0.4 kg/m3
same,mass density,"313.12 K, 16000 kPa, x2 = 0.5063",715.6 ± 0.4 kg/m3
same,mass density,"313.12 K, 17001 kPa, x2 = 0.5063",716.3 ± 0.4 kg/m3
same,mass density,"313.12 K, 18000 kPa, x2 = 0.5063",717.1 ± 0.4 kg/m3
same,mass density,"313.12 K, 19000 kPa, x2 = 0.5063",717.8 ± 0.4 kg/m3
same,mass density,"313.12 K, 20000 kPa, x2 = 0.5063",718.5 ± 0.4 kg/m3
same,mass density,"313.12 K, 21001 kPa, x2 = 0.5063",719.2 ± 0.4 kg/m3
same,mass density,"313.12 K, 22050 kPa, x2 = 0.5063",720 ± 0.4 kg/m3
same,mass density,"313.12 K, 23000 kPa, x2 = 0.5063",720.6 ± 0.4 kg/m3
same,mass density,"313.12 K, 24000 kPa, x2 = 0.5063",721.3 ± 0.4 kg/m3
same,mass density,"313.12 K, 25000 kPa, x2 = 0.5063",722 ± 0.4 kg/m3
same,mass density,"313.14 K, 1001 kPa, x2 = 0.9511",671.7 ± 0.3 kg/m3
same,mass density,"313.14 K, 2000 kPa, x2 = 0.9511",672.8 ± 0.3 kg/m3
same,mass density,"313.14 K, 3000 kPa, x2 = 0.9511",673.9 ± 0.3 kg/m3
same,mass density,"313.14 K, 4000 kPa, x2 = 0.9511",674.9 ± 0.3 kg/m3
same,mass density,"313.14 K, 5000 kPa, x2 = 0.9511",676 ± 0.3 kg/m3
same,mass density,"313.14 K, 6000 kPa, x2 = 0.9511",677 ± 0.3 kg/m3
same,mass density,"313.14 K, 7000 kPa, x2 = 0.9511",678 ± 0.3 kg/m3
same,mass density,"313.14 K, 8000 kPa, x2 = 0.9511",679 ± 0.3 kg/m3
same,mass density,"313.14 K, 9000 kPa, x2 = 0.9511",680 ± 0.3 kg/m3
same,mass density,"313.14 K, 10000 kPa, x2 = 0.9511",680.9 ± 0.3 kg/m3
same,mass density,"313.14 K, 11000 kPa, x2 = 0.9511",681.8 ± 0.3 kg/m3
same,mass density,"313.14 K, 12000 kPa, x2 = 0.9511",682.7 ± 0.4 kg/m3
same,mass density,"313.14 K, 13000 kPa, x2 = 0.9511",683.6 ± 0.4 kg/m3
same,mass density,"313.14 K, 14001 kPa, x2 = 0.9511",684.5 ± 0.4 kg/m3
same,mass density,"313.14 K, 15001 kPa, x2 = 0.9511",685.4 ± 0.4 kg/m3
same,mass density,"313.14 K, 16000 kPa, x2 = 0.9511",686.3 ± 0.4 kg/m3
same,mass density,"313.14 K, 17001 kPa, x2 = 0.9511",687.1 ± 0.4 kg/m3
same,mass density,"313.14 K, 18001 kPa, x2 = 0.9511",687.9 ± 0.4 kg/m3
same,mass density,"313.14 K, 19000 kPa, x2 = 0.9511",688.7 ± 0.4 kg/m3
same,mass density,"313.14 K, 20000 kPa, x2 = 0.9511",689.5 ± 0.4 kg/m3
same,mass density,"313.14 K, 21001 kPa, x2 = 0.9511",690.3 ± 0.4 kg/m3
same,mass density,"313.14 K, 22000 kPa, x2 = 0.9511",691.1 ± 0.4 kg/m3
same,mass density,"313.14 K, 23001 kPa, x2 = 0.9511",691.9 ± 0.4 kg/m3
same,mass density,"313.14 K, 24000 kPa, x2 = 0.9511",692.6 ± 0.5 kg/m3
same,mass density,"313.14 K, 25000 kPa, x2 = 0.9511",693.3 ± 0.5 kg/m3
same,mass density,"313.15 K, 1000 kPa, x2 = 0.7482",687.4 ± 0.3 kg/m3
same,mass density,"313.15 K, 1001 kPa, x2 = 0.05",724.3 ± 0.3 kg/m3
same,mass density,"313.15 K, 2000 kPa, x2 = 0.7482",688.4 ± 0.3 kg/m3
same,mass density,"313.15 K, 2001 kPa, x2 = 0.05",725.1 ± 0.3 kg/m3
same,mass density,"313.15 K, 3000 kPa, x2 = 0.05",726 ± 0.3 kg/m3
same,mass density,"313.15 K, 3000 kPa, x2 = 0.7482",689.4 ± 0.3 kg/m3
same,mass density,"313.15 K, 4000 kPa, x2 = 0.05",726.8 ± 0.3 kg/m3
same,mass density,"313.15 K, 4000 kPa, x2 = 0.7482",690.4 ± 0.3 kg/m3
same,mass density,"313.15 K, 5000 kPa, x2 = 0.05",727.6 ± 0.3 kg/m3
same,mass density,"313.15 K, 5000 kPa, x2 = 0.7482",691.3 ± 0.3 kg/m3
same,mass density,"313.15 K, 6000 kPa, x2 = 0.05",728.4 ± 0.3 kg/m3
same,mass density,"313.15 K, 6000 kPa, x2 = 0.7482",692.3 ± 0.3 kg/m3
same,mass density,"313.15 K, 7000 kPa, x2 = 0.05",729.2 ± 0.3 kg/m3
same,mass density,"313.15 K, 7000 kPa, x2 = 0.7482",693.2 ± 0.3 kg/m3
same,mass density,"313.15 K, 8000 kPa, x2 = 0.7482",694.1 ± 0.3 kg/m3
same,mass density,"313.15 K, 8001 kPa, x2 = 0.05",730 ± 0.3 kg/m3
same,mass density,"313.15 K, 9000 kPa, x2 = 0.05",730.8 ± 0.3 kg/m3
same,mass density,"313.15 K, 9000 kPa, x2 = 0.7482",695 ± 0.3 kg/m3
same,mass density,"313.15 K, 10000 kPa, x2 = 0.05",731.6 ± 0.3 kg/m3
same,mass density,"313.15 K, 10000 kPa, x2 = 0.7482",695.9 ± 0.3 kg/m3
same,mass density,"313.15 K, 11000 kPa, x2 = 0.05",732.3 ± 0.3 kg/m3
same,mass density,"313.15 K, 11000 kPa, x2 = 0.7482",696.8 ± 0.3 kg/m3
same,mass density,"313.15 K, 12000 kPa, x2 = 0.05",733.1 ± 0.3 kg/m3
same,mass density,"313.15 K, 12000 kPa, x2 = 0.7482",697.6 ± 0.3 kg/m3
same,mass density,"313.15 K, 13000 kPa, x2 = 0.05",733.8 ± 0.3 kg/m3
same,mass density,"313.15 K, 13000 kPa, x2 = 0.7482",698.5 ± 0.4 kg/m3
same,mass density,"313.15 K, 14000 kPa, x2 = 0.05",734.5 ± 0.3 kg/m3
same,mass density,"313.15 K, 14000 kPa, x2 = 0.7482",699.3 ± 0.4 kg/m3
same,mass density,"313.15 K, 15000 kPa, x2 = 0.05",735.2 ± 0.3 kg/m3
same,mass density,"313.15 K, 15000 kPa, x2 = 0.7482",700.1 ± 0.4 kg/m3
same,mass density,"313.15 K, 16000 kPa, x2 = 0.05",735.9 ± 0.4 kg/m3
same,mass density,"313.15 K, 16000 kPa, x2 = 0.7482",700.9 ± 0.4 kg/m3
same,mass density,"313.15 K, 17000 kPa, x2 = 0.05",736.6 ± 0.4 kg/m3
same,mass density,"313.15 K, 17000 kPa, x2 = 0.7482",701.7 ± 0.4 kg/m3
same,mass density,"313.15 K, 18000 kPa, x2 = 0.05",737.3 ± 0.4 kg/m3
same,mass density,"313.15 K, 18000 kPa, x2 = 0.7482",702.5 ± 0.4 kg/m3
same,mass density,"313.15 K, 19000 kPa, x2 = 0.05",738 ± 0.4 kg/m3
same,mass density,"313.15 K, 19000 kPa, x2 = 0.7482",703.3 ± 0.4 kg/m3
same,mass density,"313.15 K, 20000 kPa, x2 = 0.05",738.7 ± 0.4 kg/m3
same,mass density,"313.15 K, 20000 kPa, x2 = 0.7482",704 ± 0.4 kg/m3
same,mass density,"313.15 K, 21000 kPa, x2 = 0.05",739.3 ± 0.4 kg/m3
same,mass density,"313.15 K, 21000 kPa, x2 = 0.7482",704.8 ± 0.4 kg/m3
same,mass density,"313.15 K, 22000 kPa, x2 = 0.7482",705.5 ± 0.4 kg/m3
same,mass density,"313.15 K, 22001 kPa, x2 = 0.05",740 ± 0.4 kg/m3
